Results as given in patent US12365698B2, “Application of boron dipyrromethene derivatives in anti-tumor and anti-bacterial therapy” (biolitec Unternehmensbeteiligungs III AG, priority 2019, dated 2025).

Tests used:
[1] = system: HT29 tumor cell line and other cell lines; test: Cell tests: dark toxicity and phototoxicity, XTT cell viability assay; format: cell-based, human, mouse; conditions: cell tests of example 3; 2 or 10 μM
Protocol: The photosensitizing activity was determined in the following cell lines: • HT29 (human colon adenocarcinoma cell line) • L929 (mouse fibroblast cell line) • A431 (human epidermoid carcinoma cell line) • A253 (submaxillary salivary gland, epidermoid cell line) • CAL-27 (human tongue squamous cell carcinoma cell line) • J774A.1 (Mouse BALB/c monocyte macrophage).
The cell lines were grown in DMEM (c.c.pro GmbH) supplemented with 10% heat-inactivated fetal calf serum (FCS, c.c.pro GmbH), 1% penicillin (10000 IU) and streptomycin (10000 μg/ml, c.c.pro GmbH). Cells were kept as a monolayer culture in a humidified incubator (5% CO2 in air at 37° C.).
A photosensitizer stock solution (2 mM) was performed in DMSO and was kept in the dark at 4° C. Further dilution was performed in DMEM medium without phenol red supplemented with 10% FCS to reach a final photosensitizer concentration of 2 or 10 μM, respectively.
After seeding the cells in micro plates, the cells were incubated with fresh medium (DMEM without phenol red) containing 10% FCS with 2 or 10 μM of the photosensitizer for 24 h before light exposure. […]
The cell viability was assessed by the XTT assay. […]
The absorbance of the samples was measured with a microplate reader (infinite 200, Tecan Group Ltd.) at a wavelength of 490 nm.

[2] = system: Staphylococcus aureus DSM 11729; test: Antibacterial testing (CFU/ml count, with and without white light); format: cell-based; conditions: for antibacterial activity in the presence of complex media (serum addition): PBS supplemented with 10% horse blood serum; for antibacterial activity in the presence of complex media (serum addition) / antibacterial activity of compounds which carry just one bromine atom: bacterium not given; for antibacterial activity against S. aureus in the absence of light: highest tested concentration of 100 μmol
Protocol: The organisms studied were Staphylococcus aureus DSM 11729, Gram-positive and Pseudomonas aeruginosa DSM 1117, Gram-negative.
Cultures cells are suspended in sterile phosphate-buffered saline (PBS) or sterile PBS supplemented with 10% sterile horse blood serum. The bacterial suspensions are placed into sterile black well plates with clear bottoms. Concentrations of photosensitizer used in the study were as follows: 100 μM, 10 μM and 1 μM.
After an incubation time period of 30 minutes, the samples are exposed to white light, with a power density and irradiation time resulting in an energy fluency of about 100 J/cm^2. Control plates contained no photosensitizer and are not exposed to laser light. The control samples for dark toxicity are only exposed to photosensitizer without any illumination.
After irradiation, the samples are removed and suspended again in the culture media. The numbers of colony-forming units (CFU/ml) are enumerated after an adequate incubation time period.

Compound: 1,3,5,7-Tetramethyl-2,6-dibromo-8(4-propargylamino-3-nitrophenyl)-boron dipyrromethene [Example 4.5]
- toxicity in cells [1]: low toxicity
- specific activity against bacteria ([2]; compared with toxicity in cells): specifically active against bacteria

Compound: 1,3,5,7-Tetramethyl-2,6-dibromo-8-(4-N-hydroxy-ethylamino-3-nitrophenyl)-boron dipyrromethene [Example 4.2]
- antibacterial activity in the presence of complex media (serum addition) [2]: antibacterial activity is also observed
- antibacterial activity against S. aureus in the absence of light [2]: high antibacterial activity

Compound: 2-Bromo-8-(4-butyloxy-2,3,5,6-tetrafluorophenyl)-boron dipyrromethene [Example 4.11]
- antibacterial activity of compounds which carry just one bromine atom [2]: strong antibacterial activity

Compound: C#CCNc1ccc(C2=C3C=CC=[N+]3[B-](F)(F)n3cc(Br)cc32)cc1[N+](=O)[O-] [Example 4.1, 2-Bromo-8-(4-N-propargylamino-3-nitrophenyl)-boron dipyrromethene]
- antibacterial activity in the presence of complex media (serum addition) [2]: antibacterial activity is also observed
- antibacterial activity against S. aureus in the absence of light [2]: high antibacterial activity
- antibacterial activity of compounds which carry just one bromine atom [2]: strong antibacterial activity
